Test results taken from patent publication US7189736B2, “Prodrugs of imidazopyridine derivatives” (Altana Pharma AG, priority 2000, dated 2007).

test system: acid secretion of the perfused rat stomach stimulated by pentagastrin; assay: Secretion-inhibiting action on perfused rat stomach (pentagastrin-stimulated acid secretion); assay type: in vivo; conditions: Rattus norvegicus, iv, anesthetized CD rats, female, dose 3 μmol/kg i.v.
Excerpt: Testing of the Secretion-inhibiting Action on Perfused Rat Stomach
In table A below, the influence of the compounds according to the invention after intravenous administration is shown on the acid secretion of the perfused rat stomach stimulated by pentagastrin.
The abdomen of anesthetized rats (CD rats, female, 200–250 g; 1.5 g/kg of i.m. urethane) was opened after tracheotomy by a median upper abdominal incision and a PVC catheter was fixed transorally in the esophagus and a further one via the pylorus such that the ends of the tubing just still projected into the gastric lumen. The catheter leading from the pylorus led outwards via a side opening in the right abdominal wall.
After thorough rinsing (about 50–100 ml), a continuous flow of warm physiological NaCl solution (0.5 ml/min, pH 6.8–6.9; Braun-Unita I) was continuously passed through the stomach at 37° C. The pH in the effluent, in each case collected at an interval of 15 minutes, was determined (pH meter 632, glass electrode EA 147; φ 5 mm, Metrohm) and the secreted HCl was determined by titration with a freshly prepared 0.01N NaOH solution to pH 7 (Dosimat 665 Metrohm).
Gastric secretion was stimulated by continuous infusion of 1 μg/kg (=1.65 ml/h) of i.v. pentagastrin (left femoral vein) about 30 min after the end of the operation (i.e. after determination of 2 preliminary fractions). The substances to be tested were administered intravenously in 1 ml/kg of fluid volume 60 min after the start of the pentagastrin continuous infusion.
The body temperature of the animals was kept at a constant 37.8–38° C. by means of infrared irradiation and heating pads (automatic, step-free control via a rectal temperature sensor).

| SMILES | inhibition at 3 µmol/kg [%] |
| --- | --- |
| COCCO[C@H]1c2ccn3c(C)c(C)nc3c2N[C@H](c2ccccc2)[C@H]1OC(C)=O [Example 1, (7S,8R,9R)-8-Acetoxy-7-(2-methoxyethoxy)-2,3-dimethyl-9-phenyl-7,8,9,10-tetra-hydroimidazo[1,2-h][1,7]naphthyridine] | 100 |
| CO[C@@H]1c2ccn3c(C)c(C)nc3c2N[C@H](c2ccccc2)[C@H]1OC(C)=O [Example 3, (7R,8R,9R)-8-Acetoxy-7-methoxy-2,3-dimethyl-9-phenyl-7,8,9,10-tetrahydro-imidazo[1,2-h][1,7]naphthyridine] | 100 |

same assay, conditions: anesthetized CD rats, female, dose 3 μmol/kg i.v.

| SMILES | Inhibition of acid secretion (%) |
| --- | --- |
| COCCO[C@@H]1c2ccn3c(C)c(C)nc3c2N[C@H](c2ccccc2)[C@H]1OC(C)=O [Example 2, (7R,8R,9R)-8-Acetoxy-7-(2-methoxyethoxy)-2,3-dimethyl-9-phenyl-7,8,9,1,0-tetra-hydroimidazo[1,2-h][1,7]naphthyridine] | 100 |

test system: not given; assay: not given; conditions: not given

| SMILES | melting point [°C] |
| --- | --- |
| CO[C@@H]1c2ccn3c(C)c(C)nc3c2N[C@H](c2ccccc2)[C@H]1OC(C)=O [Example 3, (7R,8R,9R)-8-Acetoxy-7-methoxy-2,3-dimethyl-9-phenyl-7,8,9,10-tetrahydro-imidazo[1,2-h][1,7]naphthyridine] | 197 to 199 |
| CCO[C@@H]1c2ccn3c(C)c(C)nc3c2N[C@H](c2ccccc2)[C@H]1OC(C)=O [Example 4, (7R,8R,9R)8-Acetoxy-7-ethoxy-2,3-dimethyl-9-phenyl-7,8,9,10-tetrahydroimidazo-[1,2-h][1,7]naphthyridine] | 182 to 184 |
| CCC(=O)O[C@@H]1[C@@H](c2ccccc2)Nc2c(ccn3c(C)c(C)nc23)[C@H]1OCCOC [Example 5, (7R,8R,9R)-7-(2-Methoxyethoxy)-2,3-dimethyl-9-phenyl-8-propionyloxy-7,8,9,10-tetrahydroimidazo[1,2-h][1,7]naphthyridine] | 106 to 107 |
| COCCO[C@H]1c2ccn3c(C)c(C)nc3c2N[C@H](c2ccccc2)[C@H]1OC(=O)c1ccccc1 [Example 7, (7S,8R,9R)-8-Benzoyloxy-7-(2-methoxyethoxy)-2,3-dimethyl-9-phenyl-7,8,9,10tetrahydroimidazo[1,2-h][1,7]naphthyridine] | 78 to 80 |
| COCCO[C@@H]1c2ccn3c(C)c(C)nc3c2N[C@H](c2ccccc2)[C@H]1OC(=O)OC [Example 8, (7R,8R,9R)-8-Methoxycarbonyloxy-7-(2-methoxyethoxy)-2,3-dimethyl-9-phenyl-7,8,9,10-tetrahydroimidazo[1,2-h][1,7]naphthyridine] | 176 to 177 |
| CO[C@@H]1c2ccn3c(C)c(C)nc3c2N[C@H](c2ccccc2)[C@H]1OC(=O)c1ccccc1 [Example 10, (7R,8R,9R)-8-Benzoyloxy-7-methoxy-2,3-dimethyl-9-phenyl-7,8,9,10-tetrahydro-imidazo[1,2-h][1,7]naphthyridine] | 82 to 84 |
| CO[C@H]1c2ccn3c(C)c(C)nc3c2N[C@H](c2ccccc2)[C@H]1OC(=O)c1ccccc1 [Example 11, (7S,8R,9R)-8-Benzoyloxy-7-methoxy-2,3-dimethyl-9-phenyl-7,8,9,10-tetrahydro-imidazo[1,2-h][1,7]naphthyridine] | 78 to 80 |
| COCCO[C@@H]1c2ccn3c(C)c(C)nc3c2N[C@H](c2ccccc2)[C@H]1OC(=O)c1ccc([N+](=O)[O-])cc1 [Example 12, (7R,8R,9R)-7-(2-Methoxyethoxy)-2,3-dimethyl-8-(4-nitrobenzoyloxy)-9-phenyl-7,8,9,10-tetrahydroimidazo[1,2-h][1,7]naphthyridine] | 133 to 134 |
| CO[C@@H]1c2ccn3c(C)c(C)nc3c2N[C@H](c2ccccc2)[C@H]1OC(=O)c1cccc([N+](=O)[O-])c1 [Example 17, (7R,8R,9R)-7-Methoxy-2,3-dimethyl-8-(3-nitrobenzoyloxy)-9-phenyl-7,8,9,10-tetra-hydroimidazo[1,2-h][1,7]naphthyridine] | 80 to 84 |
| COCCO[C@H]1c2ccn3c(C)c(C)nc3c2N[C@H](c2ccccc2)[C@H]1OC(=O)c1ccc(OC)cc1 [Example 18, (7S,8R,9R)-7-(2-Methoxyethoxy)-2,3-dimethyl-8-(4-methoxybenzoyloxy)-9-phenyl-7,8,9,10-tetrahydroimidazo[1,2-h][1,7]naphthyridine] | 82 to 83 |
| COCCO[C@@H]1c2ccn3c(C)c(C)nc3c2N[C@H](c2ccccc2)[C@H]1OC(=O)c1ccc(OC)cc1 [Example 19, (7R,8R,9R)-7-(2-Methoxyethoxy)-2,3-dimethyl-8-(4-methoxybenzoyloxy)-9-phenyl-7,8,9,10-tetrahydroimidazo[1,2-h][1,7]naphthyridine] | 150 to 151 |
| COCCO[C@@H]1c2ccn3c(C)c(C)nc3c2N[C@H](c2ccccc2)[C@H]1OC(=O)CN(C)C [Example 20, (7R,8R,9R)-7-(2-Methoxyethoxy)-2,3-dimethyl-8-(N,N-dimethylaminomethyl-carbonyloxy)-9-phenyl-7,8,9,10-tetrahydroimidazo[1,2-h][1,7]naphthyridine] | 114 to 115 |
| COCCO[C@H]1c2ccn3c(C)c(C)nc3c2N[C@H](c2ccccc2)[C@H]1OC(=O)CN(C)C [Example 21, (7S,8R,9R)-7-(2-Methoxyethoxy)-2,3-dimethyl-8-(N,N-dimethylaminomethyl-carbonyloxy)-9-phenyl-7,8,9,10-tetrahydroimidazo[1,2-h][1,7]naphthyridine] | 206 to 207 |
| CCN(CC)C(=O)O[C@@H]1[C@@H](c2ccccc2)Nc2c(ccn3c(C)c(C)nc23)[C@@H]1OCCOC [Example 22, (7S,8R,9R)-7-(2-Methoxyethoxy)-8-(N,N-diethylaminocarbonyloxy)-2,3-dimethyl-9-phenyl-7,8,9,10-tetrahydroimidazo[1,2-h][1,7]naphthyridine] | 50 to 52 |
| COCCO[C@@H]1c2ccn3c(C)c(C)nc3c2N[C@H](c2ccccc2)[C@H]1OC(=O)OC1CC(C)CCC1C(C)C (stereo partly drawn) [Example 26, (7R,8R,9R)-8-[(+)-Menthyloxycarbonyloxy]-7-(2-methoxyethoxy)-2,3-dimethyl-9-phenyl-7,8,9,10-tetrahydroimidazo[1,2-h][1,7]naphthyridine] | 127 to 129 |
| COCCO[C@H]1c2ccn3c(C)c(C)nc3c2N[C@H](c2ccccc2)[C@H]1OC(=O)OC1CC(C)CCC1C(C)C (stereo partly drawn) [Example 27, (7S,8R,9R)-8-[(+)-Menthyloxycarbonyloxy]-7-(2-methoxyethoxy)-2,3-dimethyl-9-phenyl-7,8,9,10-tetrahydroimidazo[1,2-h][1,7]naphthyridine] | 63 to 65 |
| COCC(=O)O[C@@H]1[C@@H](c2ccccc2)Nc2c(ccn3c(C)c(C)nc23)[C@@H]1OC [Example 40, (7S,8R,9R)-2,3-Dimethyl-7-methoxy-8-methoxyacetyloxy-9-phenyl-7,8,9,10-tetrahydroimidazo[1,2-h][1,7]naphthyridine] | 73 to 75 |
| CCN(CC)C(=O)O[C@@H]1[C@@H](c2ccccc2)Nc2c(ccn3c(C)c(C)nc23)[C@H]1OC [Example 41, (7R,8R,9R)8-(N,N-Diethylaminocarbonyloxy)-2,3-dimethyl-7-methoxy-9-phenyl 7,8,9,10-tetrahydroimidazo[1,2-h][1,7]naphthyridine] | 123 to 124 |
| CCN(CC)C(=O)O[C@@H]1[C@@H](c2ccccc2)Nc2c(ccn3c(C)c(C)nc23)[C@@H]1OC [Example 42, (7S,8R,9R)8-(N,N-Diethylaminocarbonyloxy)-2,3-dimethyl-7-methoxy-9-phenyl 7,8,9,10-tetrahydroimidazo[1,2-h][1,7]naphthyridine] | 97 to 98 |
| COC(=O)O[C@@H]1[C@@H](c2ccccc2)Nc2c(ccn3c(C)c(C)nc23)[C@H]1OC [Example 43, (7R,8R,9R)7-Methoxy-8-methoxycarbonyloxy-2,3-dimethyl-9-phenyl 7,8,9,10-tetrahydroimidazo[1,2-h][1,7]naphthyridine] | 178 to 179 |
| COC(=O)O[C@@H]1[C@@H](c2ccccc2)Nc2c(ccn3c(C)c(C)nc23)[C@@H]1OC [Example 44, (7S,8R,9R)7-Methoxy-8-methoxycarbonyloxy-2,3-dimethyl-9-phenyl 7,8,9,10-tetrahydroimidazo[1,2-h][1,7]naphthyridine] | 90 to 91 |
| CO[C@@H]1c2ccn3c(C)c(C)nc3c2N[C@H](c2ccccc2)[C@H]1OC=O [Example 45, (7R,8R,9R)-2,3-Dimethyl-8-formyloxy-7-methoxy-9-phenyl-7,8,9,10-tetrahydro-imidazo[1,2-h][1,7]naphthyridine] | 152 to 153 |
| CO[C@@H]1c2ccn3c(C)c(C)nc3c2N[C@H](c2ccccc2)[C@H]1OC(=O)c1ccccc1 [Example 47, (7R,8R,9R)-8-Benzoyloxy-2,3-dimethyl-7-methoxy-9-phenyl-7,8,9,10-tetrahydro-imidazo[1,2-h][1,7]naphthyridine] | 92 to 93 |
